What was measured:
Type in all cases: functional
Mus musculus [1] = species on record: Mus musculus; test: Average survival time (treated / control) x100 was calculated in mice bearing the L1210 Leukemia at 80 mg / kg
Mus musculus [2] = species on record: Mus musculus; test: The average survival time(days) of mice bearing the P388 Leukemia at 100 mg / kg
Mus musculus [3] = species on record: Mus musculus; test: Average change in body weight from onset to termination of drug therapy in mice bearing the P388 Leukemia at 100 mg / kg
Mus musculus [4] = species on record: Mus musculus; test: Average change in body weight from onset to termination of drug therapy in mice bearing the L1210 Leukemia at 80 mg / kg
Mus musculus [5] = species on record: Mus musculus; test: At the 50 day survivors of mice bearing the P388 Leukemia at 100 mg / kg; design: unit not given here
Mus musculus [6] = species on record: Mus musculus; test: Average survival time (treated / control) x100 was calculated in mice bearing the P388 Leukemia at 100 mg / kg
Mus musculus [7] = species on record: Mus musculus; test: The average survival time (days) of mice bearing the L1210 Leukemia at 80 mg / kg
Mus musculus [8] = species on record: Mus musculus; test: At the 50 day survivors of mice bearing the L1210 Leukemia at 80 mg / kg
Mus musculus [9] = species on record: Mus musculus; test: The average survival time (days) of mice bearing the L1210 Leukemia at 80 mg / kg (Mice that survived more than 50 days)
Mus musculus [10] = species on record: Mus musculus; test: The average survival time(days) of mice bearing the P388 Leukemia at 100 mg / kg (Mice that survived more than 50 days)
Mus musculus [11] = species on record: Mus musculus; test: Average survival time (treated / control) x100 was calculated in mice bearing the L1210 Leukemia at 80 mg / kg (Mice that survived more than 50 days)
Mus musculus [12] = species on record: Mus musculus; test: Average survival time (treated / control) x100 was calculated in mice bearing the P388 Leukemia at 100 mg / kg (Mice that survived more than 50 days)
Mus musculus [13] = species on record: Mus musculus; test: Average survival time (treated / control) x100 was calculated in mice bearing the L1210 Leukemia at 60 mg / kg
Mus musculus [14] = species on record: Mus musculus; test: At the 50 day survivors of mice bearing the L1210 Leukemia at 60 mg / kg
Mus musculus [15] = species on record: Mus musculus; test: The average survival time (days) of mice bearing the L1210 Leukemia at 60 mg / kg
Mus musculus [16] = species on record: Mus musculus; test: Average change in body weight from onset to termination of drug therapy in mice bearing the L1210 Leukemia at 60 mg / kg
Mus musculus [17] = species on record: Mus musculus; test: Average change in body weight from onset to termination of drug therapy in mice bearing the L1210 Leukemia at 120 mg / kg
Mus musculus [18] = species on record: Mus musculus; test: The average survival time (days) of mice bearing the L1210 Leukemia at 120 mg / kg
Mus musculus [19] = species on record: Mus musculus; test: Average survival time (treated / control) x100 was calculated in mice bearing the L1210 Leukemia at 120 mg / kg
Mus musculus [20] = species on record: Mus musculus; test: At the 50 day survivors of mice bearing the L1210 Leukemia at 120 mg / kg; design: unit not given here
Mus musculus [21] = species on record: Mus musculus; test: Average change in body weight from onset to termination of drug therapy in mice bearing the L1210 Leukemia at 100 mg / kg
Mus musculus [22] = species on record: Mus musculus; test: The average survival time (days) of mice bearing the L1210 Leukemia at 100 mg / kg
Mus musculus [23] = species on record: Mus musculus; test: At the 50 day survivors of mice bearing the L1210 Leukemia at 100 mg / kg; design: unit not given here
Mus musculus [24] = species on record: Mus musculus; test: Average survival time (treated / control) x100 was calculated in mice bearing the L1210 Leukemia at 100 mg / kg
Mus musculus [25] = species on record: Mus musculus; test: Average change in body weight from onset to termination of drug therapy in mice bearing the P388 Leukemia at 80 mg / kg
Mus musculus [26] = species on record: Mus musculus; test: The average survival time(days) of mice bearing the P388 Leukemia at 80 mg / kg
Mus musculus [27] = species on record: Mus musculus; test: Average survival time (treated / control) x100 was calculated in mice bearing the P388 Leukemia at 80 mg / kg
Mus musculus [28] = species on record: Mus musculus; test: At the 50 day survivors of mice bearing the P388 Leukemia at 80 mg / kg
Mus musculus [29] = species on record: Mus musculus; test: The average survival time(days) of mice bearing the P388 Leukemia at 120 mg / kg (Mice that survived more than 50 days)
Mus musculus [30] = species on record: Mus musculus; test: Average survival time (treated / control) x100 was calculated in mice bearing the L1210 Leukemia at 100 mg / kg (Mice that survived more than 50 days)
Mus musculus [31] = species on record: Mus musculus; test: Average survival time (treated / control) x100 was calculated in mice bearing the P388 Leukemia at 120 mg / kg (Mice that survived more than 50 days)
Mus musculus [32] = species on record: Mus musculus; test: The average survival time (days) of mice bearing the L1210 Leukemia at 100 mg / kg (Mice that survived more than 50 days)
Mus musculus [33] = species on record: Mus musculus; test: Average change in body weight from onset to termination of drug therapy in mice bearing the P388 Leukemia at 120 mg / kg
Mus musculus [34] = species on record: Mus musculus; test: At the 50 day survivors of mice bearing the P388 Leukemia at 120 mg / kg
Mus musculus [35] = species on record: Mus musculus; test: The average survival time(days) of mice bearing the P388 Leukemia at 80 mg / kg (Mice that survived more than 50 days)
Mus musculus [36] = species on record: Mus musculus; test: Average survival time (treated / control) x100 was calculated in mice bearing the P388 Leukemia at 80 mg / kg (Mice that survived more than 50 days)
Mus musculus [37] = species on record: Mus musculus; test: At the 50 day survivors of mice bearing the P388 Leukemia at 100 mg / kg (Mice that survived more than 50 days)
Mus musculus [38] = species on record: Mus musculus; test: The average survival time (days) of mice bearing the L1210 Leukemia at 120 mg / kg (Mice that survived more than 50 days)
Mus musculus [39] = species on record: Mus musculus; test: Average survival time (treated / control) x100 was calculated in mice bearing the L1210 Leukemia at 120 mg / kg (Mice that survived more than 50 days)

| SMILES | Average survival (Mus musculus [2]) [days] | Average change in body weight (Mus musculus [3]) [%] | Survivors (Mus musculus [5]) | T/C (Mus musculus [6]) [%] | T/C (Mus musculus [12]) [%] | Average change in body weight (Mus musculus [17]) [%] | Survivors (Mus musculus [20]) | Average change in body weight (Mus musculus [21]) [%] | Average survival (Mus musculus [22]) [days] | Survivors (Mus musculus [23]) | T/C (Mus musculus [24]) [%] | other results |
| --- | --- | --- | --- | --- | --- | --- | --- | --- | --- | --- | --- | --- |
| O=C(O)c1cc(S(=O)(=O)N/N=C/c2cccc[n+]2[O-])ccc1O | 13.8 | -9.8 | 0 | 147 |  |  |  |  |  |  |  | T/C (Mus musculus [1]): 156%; Average change in body weight (Mus musculus [4]): 0%; Average survival (Mus musculus [7]): 14 days; Survivors (Mus musculus [8]): 0 |
| COc1ccc(S(=O)(=O)N/N=C/c2cccc[n+]2[O-])c(OC)c1 |  | -10.3 | 20 |  | 226 |  |  |  |  |  |  | Average survival (Mus musculus [9]): 11.7 days; Average change in body weight (Mus musculus [4]): -2.5%; Average survival (Mus musculus [10]): 21.2 days; T/C (Mus musculus [11]): 130%; Survivors (Mus musculus [8]): 20 |
| O=C(O)c1ccc(S(=O)(=O)N/N=C/c2cccc[n+]2[O-])cc1 | 13.8 | -4.1 | 0 | 147 |  |  |  |  |  |  |  | T/C (Mus musculus [13]): 120%; Survivors (Mus musculus [14]): 0; Average survival (Mus musculus [15]): 10.8 days; Average change in body weight (Mus musculus [16]): 3.4% |
| O=C(O)Cc1ccc(S(=O)(=O)N/N=C/c2cccc[n+]2[O-])cc1 | 13.6 | -5.2 | 0 | 145 |  | 7.3 | 0 |  |  |  |  | Average survival (Mus musculus [18]): 10.4 days; T/C (Mus musculus [19]): 116% |
| CN(C)c1ccc(S(=O)(=O)N/N=C/c2cccc[n+]2[O-])cc1 | 16.4 | -4.4 | 0 | 174 |  |  |  | -3.2 | 16.8 | 0 | 187 |  |
| O=C(O)c1cccc(S(=O)(=O)N/N=C/c2cccc[n+]2[O-])c1 |  |  |  |  |  | -2.4 | 0 |  |  |  |  | Average change in body weight (Mus musculus [25]): -6.5%; Average survival (Mus musculus [26]): 13.8 days; T/C (Mus musculus [27]): 147%; Average survival (Mus musculus [18]): 12.4 days; Survivors (Mus musculus [28]): 0; T/C (Mus musculus [19]): 138% |
| Cc1ccc(S(=O)(=O)N/N=C/c2cccc[n+]2[O-])cc1C(=O)O |  | -5.9 | 40 |  | 99 |  |  | -5 | 11.8 | 0 | 131 | Average survival (Mus musculus [10]): 9.3 days |
| O=S(=O)(N/N=C/c1cccc[n+]1[O-])c1ccc(O)cc1 | 16 | -15.4 | 0 | 170 |  |  |  | -0.8 | 12.2 | 0 | 136 |  |
| COc1ccc(S(=O)(=O)N/N=C/c2cccc[n+]2[O-])cc1OC |  |  |  |  |  |  |  | -8.7 |  | 80 |  | Average survival (Mus musculus [29]): 11.5 days; T/C (Mus musculus [30]): 210%; T/C (Mus musculus [31]): 122%; Average survival (Mus musculus [32]): 19 days; Average change in body weight (Mus musculus [33]): -18.8%; Survivors (Mus musculus [34]): 60 |
| Cc1ccc(C(=O)O)cc1S(=O)(=O)N/N=C/c1cccc[n+]1[O-] |  | 0 | 20 |  | 180 |  |  | 4.1 | 12 | 0 | 133 | Average survival (Mus musculus [10]): 17 days |
| COc1ccc(C(=O)O)cc1S(=O)(=O)N/N=C/c1cccc[n+]1[O-] |  |  |  |  |  |  |  | 8.1 | 11.6 | 0 | 129 | Average change in body weight (Mus musculus [25]): -3.1%; Average survival (Mus musculus [35]): 15 days; Survivors (Mus musculus [28]): 20; T/C (Mus musculus [36]): 160% |
| Cc1cc(C)c(S(=O)(=O)N/N=C/c2cccc[n+]2[O-])c(C)c1 | 17 | -9.3 |  |  | 180 | -1 | 40 |  |  |  |  | Survivors (Mus musculus [37]): 40; Average survival (Mus musculus [38]): 11.3 days; T/C (Mus musculus [39]): 126% |
| CC(=O)Nc1ccc(S(=O)(=O)N/N=C/c2cccc[n+]2[O-])cc1 |  |  |  |  |  | 0 | 0 |  |  |  |  | Average change in body weight (Mus musculus [25]): -4.4%; Average survival (Mus musculus [26]): 14.8 days; T/C (Mus musculus [27]): 157%; Average survival (Mus musculus [18]): 15.2 days; Survivors (Mus musculus [28]): 0; T/C (Mus musculus [19]): 169% |

From ChEMBL document CHEMBL1121450, “Synthesis and antineoplastic activity of phenyl-substituted benzenesulfonylhydrazones of 2-pyridinecarboxyaldehyde 1-oxide” (1980)
